Consider twelve molecules from PMC4872591, “An evaluation of Minor Groove Binders as anti-Trypanosoma brucei brucei therapeutics” (European Journal of Medicinal Chemistry, 2016).

Where two headings read alike, the source gives them in different places. Marks after values point to notes of the source that are not given here. Where only a bound is given, the exact number is not on record here.

Assay [1] has as its system kinetoplast of trypanosome. Details: method as in PMID 16723581. To be noted: cited from earlier work.
The subject of the next assay is HEK 293 cells. In words: HEK 293 cytotoxicity assay (AlamarBlue viability). The note with it: for SI (selectivity index): HEK 293 IC50 taken as 20 μM (10 μM estimated for compound 21) versus T. b. brucei IC50. In kind it is cell-based, human. The procedure:
Compounds were tested in an AlamarBlue viability assay using fluorescent intensity as the output. Briefly, Human Embryonic Kidney cells (HEK 293) were cultured in DMEM (Dulbeccos Modified Eagle Medium) plus 10% Foetal Bovine Serum (FBS) in a humidified environment at 37 °C and 5% CO2. Cells were harvested at 80% confluence and plated into 384-well tissue culture treated black walled clear base plates at 2000 cells per well in a volume of 45 μl and incubated overnight to equilibrate. Five μl of compounds in serial dilution format, including Puromycin as a positive control and 0.4% DMSO as the negative control, were transferred into the plates containing the equilibrated HEK293 cells. The plates were incubated for a further 72 h before “flicking” the compound containing media out and replacing with 40 μL of 10% AlamarBlue® in DMEM without FBS. The assay plates were returned to the incubator for 6 h then the total fluorescent intensity determined at 535 nm excitation and 585 nm emission using the Perkin Elmer ENVISION 2101 Multilabel Reader. Fluorescent intensity values were normalized as percent inhibition in relation to the positive and negative controls of 5 μM Puromycin and 0.4% DMSO, respectively. The compounds were tested in two separate experiments each in duplicate point.

In assay [2] the test system is Bloodstream form T. b. brucei (Lister 427). In words: Trypanosoma brucei brucei Alamar Blue assay. The assay is classed as cell-based. The note with it: Trypanosoma brucei. The procedure:
IC50 values against trypanosomes were determined by Alamar Blue assay. […] After this time, 20 μL of resazurin dye (Sigma–Aldrich) solution at 0.49 mM was added. […] Output was plotted using the IC50 determination algorithm of Prism 5.0 software (GraphPad). Three independent experiments were carried out in duplicate for each compound.
For orientation: The colour change of resazurin is a common sign of viable cells or microbes.

For the next assay, the system named is T. b. brucei. In words: Fluorescence microscopy, intracellular localisation in T. b. brucei. The assay is classed as cell-based, Trypanosoma brucei brucei. The note with it: 50 μM, 2 h, FITC and DsRed filters. The procedure: Fig. 6 Intracellular localisation of fluorescent MGB in T. b. brucei. Trypanosomes were treated for 2 h with 50 μM of MGB and viewed at 100 × magnification. N = nucleus; K = kinetoplast; arrow = other organelles. Bar = 10 μm.
T. b. brucei parasites (1 × 10^7 cell/mL) were treated with 50 μM of compound 32 for 2 h at 37 °C in a humidified, 5% CO2 atmosphere. After washing in PBS, an aliquot of cells was mixed with an equal volume of 2% w/v low melting point agarose (Sigma–Aldrich) and spread onto a slide by addition of a coverslip. Slides were viewed using a Zeiss Axioplan 2 Imaging epifluorescence microscope, equipped with a digital CCD camera (Hammatsu Photonics) and a Plan[…] 100 × oil-immersion NA 1.4 objective (Carl Zeiss). FITC (excitation 450–490 nm, beamsplitter 510 nm, emission 515–565 nm) and DsRed (excitation 545/25 nm, beamsplitter 570 nm, emission 605/70 nm) filter sets were used, and images acquired using Volocity imaging software (Improvision).

Setting [3] is: Table 1, Alamar Blue, 48 h + 24 h, all standard deviations less than 2%, read-out: IC50 against Trypanosoma brucei brucei.
The mark [4] stands for this setting: Table 2, read-out: Trypanosoma brucei brucei IC50.
Where [5] appears, read: values given in nM, read-out: IC50 against T. b. brucei.

On to `N=C(N)c1ccc(-c2ccc(-c3ccc(C(=N)N)cc3)o2)cc1` [Furamidine, furamidine], for which the “exposure time to destruction of the kinetoplast” value in assay [1] is no more than 24 h.

As a reminder, the inhibition is the percentage by which the read-out fell short of the control. A lower inhibition goes with a response near the control. For orientation: IC50 means the concentration at which inhibition is half-maximal. For the molecule `CC(C)CCc1sc(NC(=O)c2cc(NC(=O)c3cc(/C=C/c4ccc([N+](=O)[O-])cc4)cn3C)cn2C)nc1C(=O)NCCN1CCOCC1` [Compound 21, 5-isopentyl-2-[({1-methyl-4-[({1-methyl-4-[(E)-2-(4-nitrophenyl)ethenyl]-1H-pyrrol-2-yl}carbonyl)amino]-1H-pyrrol-2-yl}carbonyl)amino]-N-[2-(4-morpholinyl)ethyl]-1,3-thiazole-4-carboxamide], the “SI (selectivity index)” value in the assay on HEK 293 cells is >1851*. This molecule also had an inhibition at 20 µM with HEK 293 cells (Homo sapiens, HEK293, 20 μM, 72 h, HEK 293) of 54%. Also, the half-maximal inhibitory concentration (IC50) is roughly 10000 nM in the assay on HEK 293 cells (Homo sapiens, HEK293, read-out: estimated IC50 against HEK 293 cells); 5.4 nM in assay [2] (setting [3]); 5.4 nM in assay [2] (setting [4]); less than 40 nM in assay [2] (setting [5]).

Consider `Cn1cc(NC(=O)c2cc(NC(=O)c3ccc(/C=C/c4ccc5nsnc5c4)cc3)cn2C)cc1C(=O)NCCN1CCOCC1` [Compound 28, 4-({4-[(E)-2-(2,1,3-benzothiadiazol-5-yl)ethenyl]benzoyl}amino)-1-methyl-N-[1-methyl-5-({[2-(4-morpholinyl)ethyl]amino}carbonyl)-1H-pyrrol-3-yl]-1H-pyrrole-2-carboxamide], for which, in the assay with HEK 293 cells (20 μM, 72 h, HEK 293), the “% HEK 293 Inhibition at 20 μM” value is recorded as “N/A (N/A is an IC50 value > 20 μM)”. Moreover, the “SI (selectivity index)” value with HEK 293 cells is recorded as greater than 2739. Besides, the IC50 in assay [2] (setting [3]) is 7.3 nM; in assay [2] (setting [4]) it was 7.3 nM; in assay [2] (setting [5]), less than 40 nM.

With `Cn1cc(NC(=O)c2cc(NC(=O)c3ccc(/C=C/c4ccc5nonc5c4)cc3)cn2C)cc1C(=O)NCCN1CCOCC1` [Compound 29, 4-({4-[(E)-2-(2,1,3-benzoxadiazol-5-yl)ethenyl]benzoyl}amino)-1-methyl-N-[1-methyl-5-({[2-(4-morpholinyl)ethyl]amino}carbonyl)-1H-pyrrol-3-yl]-1H-pyrrole-2-carboxamide], the “% HEK 293 Inhibition at 20 μM” value with HEK 293 cells (20 μM, 72 h, HEK 293) was “N/A (N/A is an IC50 value > 20 μM)”. In the assay on HEK 293 cells, the “SI (selectivity index)” value is listed as greater than 1052. In addition, the IC50 was 19 nM in assay [2] (setting [3]), 19 nM in assay [2] (setting [4]) and less than 40 nM in assay [2] (setting [5]).

In the case of `CC(C)CCc1sc(NC(=O)c2cc(NC(=O)c3ccc(/C=C/c4ccc5ccccc5c4)cc3)cn2C)nc1C(=O)NCCN1CCOCC1` [Compound 20, 5-isopentyl-2-({[1-methyl-4-({4-[(E)-2-(2-naphthyl)ethenyl]benzoyl}amino)-1H-pyrrol-2-yl]carbonyl}amino)-N-[2-(4-morpholinyl)ethyl]-1,3-thiazole-4-carboxamide], in the assay on HEK 293 cells (20 μM, 72 h, HEK 293), the “% HEK 293 Inhibition at 20 μM” value is recorded as “N/A (N/A is an IC50 value > 20 μM)”. The “SI (selectivity index)” value in the assay with HEK 293 cells was greater than 500. The concentration for half-maximal inhibition (IC50) in assay [2] (setting [3]) is 40 nM; in assay [2] (setting [4]), 40 nM; in assay [2] (setting [5]), less than 40 nM.

For `COc1ccc(C[C@H](N)C(=O)N[C@H]2[C@@H](O)[C@H](n3cnc4c(N(C)C)ncnc43)O[C@@H]2CO)cc1` [Puromycin, reference compound], the concentration for half-maximal inhibition (IC50) in the assay with HEK 293 cells (Homo sapiens, HEK293, positive control, two separate independent experiments, read-out: IC50 against HEK 293 cells) came to 350 nM.

As for `N=C(N)c1ccc(OCCCCCOc2ccc(C(=N)N)cc2)cc1` [pentamidine], the “exposure time to destruction of the kinetoplast” value in assay [1] is on record as no more than 24 h.

As for `Cn1cc(NC(=O)c2cc(NC(=O)c3cc(NC(=O)c4cc5ccccc5cn4)cn3C)cn2C)cc1C(=O)NCCCN1CCOCC1` [Compound 8, N-[1-Methyl-5-({[1-methyl-5-({[1-methyl-5-({[3-(4-morpholinyl)propyl]amino}carbonyl)-1H-pyrrol-3-yl]amino}carbonyl)-1H-pyrrol-3-yl]amino}carbonyl)-1H-pyrrol-3-yl]-3-isoquinolinecarboxamide], the “% HEK 293 Inhibition at 20 μM” value in the assay on HEK 293 cells (20 μM, 72 h, HEK 293) is given as “N/A (N/A is an IC50 value > 20 μM)”. The “SI (selectivity index)” value in the assay on HEK 293 cells is greater than 2941. Also, the figures for the half-maximal inhibitory concentration (IC50) in assay [2] (setting [3]), in assay [2] (setting [4]) and in assay [2] (setting [5]) were 6.8 nM, 6.8 nM and less than 40 nM, respectively.

For the molecule `COc1cccc(C(=N)Nc2cc(C(=O)Nc3cc(C(=O)Nc4cc(C(=O)NCCCN5CCOCC5)n(C)c4)n(C)c3)n(C)c2)c1` [Compound 9, 4-{[(4-{[imino(3-methoxyphenyl)methyl]amino}-1-methyl-1H-pyrrol-2-yl)carbonyl]amino}-1-methyl-N-[1-methyl-5-({[3-(4-morpholinyl)propyl]amino}carbonyl)-1H-pyrrol-3-yl]-1H-pyrrole-2-carboxamide], the IC50 in assay [2] (setting [3]) is greater than 75000 nM; in assay [2] (values in μM, read-out: IC50 against T. b. brucei) it was greater than 75000 nM.

Take `CC(C)CCc1sc(NC(=O)c2cc(NC(=O)c3ccc(/C=C/c4ccc5ccccc5n4)cc3)cn2C)nc1C(=O)NCCN1CCOCC1` [Compound 23, 5-isopentyl-2-({[1-methyl-4-({4-[(E)-2-(2-quinolinyl)ethenyl]benzoyl}amino)-1H-pyrrol-2-yl]carbonyl}amino)-N-[2-(4-morpholinyl)ethyl]-1,3-thiazole-4-carboxamide]: the IC50 in assay [2] (setting [3]) was determined as 620 nM.

In the case of `CN(C)CCCNC(=O)c1cc(NC(=O)c2cc(NC(=O)c3cc(NC(=N)c4cc5ccccc5cn4)cn3C)cn2C)cn1C` [Compound 17, N-[5-({[3-(dimethylamino)propyl]amino}carbonyl)-1-methyl-1H-pyrrol-3-yl]-4-{[(4-{[imino(3-isoquinolinyl)methyl]amino}-1-methyl-1H-pyrrol-2-yl)carbonyl]amino}-1-methyl-1H-pyrrole-2-carboxamide], the half-inhibitory concentration (IC50) in assay [2] (setting [3]) amounted to 4900 nM.

On to `CN(C)c1ccc(/C=C/c2ccc(C(=O)Nc3cc(C(=O)Nc4cc(C(=O)NCCN5CCOCC5)n(C)c4)n(C)c3)cn2)cc1` [Compound 32, 6-{(E)-2-[4-(Dimethylamino)phenyl]ethenyl}-N-[1-methyl-5-({[1-methyl-5-({[2-(4-morpholinyl)ethyl]amino}carbonyl)-1H-pyrrol-3-yl]amino}carbonyl)-1H-pyrrol-3-yl]nicotinamide], for which the “Intracellular localisation in the trypanosome” value with T. b. brucei is “localisation to the nucleic acid rich regions of the nucleus and kinetoplast”. In assay [2] (setting [3]), the IC50 came out at 170 nM.
